Assay results from PubChem BioAssay AID1963863 (Molecular Pharmacology Branch, DTP, NCI, 2024).

System: 931267-113-T-J1-PDC KRAS spheroid with HUVEC/MSC, viability
Assay: Anticancer human tumor 931267-113-T-J1-PDC patient-derived colon adenocarcinoma cell line growth inhibition [KRAS2]
Settings: for IC50: curve of first compound; for viability, T/C: stronger effect = lower value
Method in brief: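 KRAS-mutant tumor cells were grown as spheroids with HUVEC endothelial cells and human MSCs as stroma. Targeted agents were tested alone and with KRAS pathway inhibitors. Doses started at or near clinical Cmax, or 10 microM, descending half-log.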

[1] = second compound 0.1 µM, first compound 0.0316 µM
[2] = second compound 0.1 µM, first compound 0.1 µM
[3] = second compound 0.1 µM, first compound 0.316 µM
[4] = second compound 0.1 µM, first compound 1 µM
[5] = second compound 0.1 µM, first compound 3.16 µM
[6] = second compound 0.1 µM, first compound 10 µM
[7] = second compound 0.316 µM, first compound 0.0316 µM
[8] = second compound 0.316 µM, first compound 0.1 µM
[9] = second compound 0.316 µM, first compound 0.316 µM
[10] = second compound 0.316 µM, first compound 1 µM
[11] = second compound 0.316 µM, first compound 3.16 µM
[12] = second compound 0.316 µM, first compound 10 µM
[13] = second compound 1 µM, first compound 0.0316 µM
[14] = second compound 1 µM, first compound 0.1 µM
[15] = second compound 1 µM, first compound 0.316 µM
[16] = second compound 1 µM, first compound 1 µM
[17] = second compound 1 µM, first compound 3.16 µM
[18] = second compound 1 µM, first compound 10 µM
[19] = second compound 3.16 µM, first compound 0.0316 µM
[20] = second compound 3.16 µM, first compound 0.1 µM
[21] = second compound 3.16 µM, first compound 0.316 µM
[22] = second compound 3.16 µM, first compound 1 µM
[23] = second compound 3.16 µM, first compound 3.16 µM
[24] = second compound 3.16 µM, first compound 10 µM
[25] = second compound 10 µM, first compound 0.0316 µM
[26] = second compound 10 µM, first compound 0.1 µM
[27] = second compound 10 µM, first compound 0.316 µM
[28] = second compound 10 µM, first compound 1 µM
[29] = second compound 10 µM, first compound 3.16 µM
[30] = second compound 10 µM, first compound 10 µM
[31] = second compound 0.1 µM, first compound 0.000316 µM
[32] = second compound 0.1 µM, first compound 0.001 µM
[33] = second compound 0.1 µM, first compound 0.00316 µM
[34] = second compound 0.1 µM, first compound 0.01 µM
[35] = second compound 0.316 µM, first compound 0.000316 µM
[36] = second compound 0.316 µM, first compound 0.001 µM
[37] = second compound 0.316 µM, first compound 0.00316 µM
[38] = second compound 0.316 µM, first compound 0.01 µM
[39] = second compound 1 µM, first compound 0.000316 µM
[40] = second compound 1 µM, first compound 0.001 µM
[41] = second compound 1 µM, first compound 0.00316 µM
[42] = second compound 1 µM, first compound 0.01 µM
[43] = second compound 3.16 µM, first compound 0.000316 µM
[44] = second compound 3.16 µM, first compound 0.001 µM
[45] = second compound 3.16 µM, first compound 0.00316 µM
[46] = second compound 3.16 µM, first compound 0.01 µM
[47] = second compound 10 µM, first compound 0.000316 µM
[48] = second compound 10 µM, first compound 0.001 µM
[49] = second compound 10 µM, first compound 0.00316 µM
[50] = second compound 10 µM, first compound 0.01 µM
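Also: compound exposure lasted 7 days before the readout.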
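For viability, T/C in this document: 100% = DMSO vehicle control viability.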

Row | Structure (SMILES) | IC50 (second compound 0.1 µM) [nM] | IC50 (second compound 0.316 µM) [nM] | IC50 (second compound 1 µM) [nM] | IC50 (second compound 3.16 µM) [nM] | IC50 (second compound 10 µM) [nM] | viability, T/C [1] [%] | viability, T/C [2] [%] | viability, T/C [3] [%] | viability, T/C [4] [%] | viability, T/C [7] [%] | viability, T/C [8] [%] | viability, T/C [9] [%] | viability, T/C [10] [%] | viability, T/C [13] [%] | viability, T/C [14] [%] | viability, T/C [15] [%] | viability, T/C [19] [%] | viability, T/C [20] [%] | viability, T/C [25] [%] | viability, T/C [26] [%] | further results
1 | CC(C)NCC(C(=O)N1CCN(c2ncnc3c2C(C)CC3O)CC1)c1ccc(Cl)cc1 (stereo not given) + CNCc1ccccc1-c1csc(C(C)Nc2nc(C)nc3cc(OC)c(OC)cc23)c1 | 4930 | 5430 | 90.5 | < 31.6 | < 31.6 | 96.3 | 90.4 | 79 | 68.4 | 76 | 70 | 63.6 | 54.6 | 60.7 | 47.9 | 38.9 | 0.1 | 0.18 | 0.17 | 0.15 | viability, T/C [5]: 59.3%; viability, T/C [6]: 38.6%; viability, T/C [11]: 69.1%; viability, T/C [12]: 31.1%; viability, T/C [16]: 33.4%; viability, T/C [17]: 21.6%; viability, T/C [18]: 19.2%; viability, T/C [21]: 0.09%; viability, T/C [22]: 0.1%; viability, T/C [23]: 0.14%; viability, T/C [24]: 0.16%; viability, T/C [27]: 0.15%; viability, T/C [28]: 0.14%; viability, T/C [29]: 0.25%; viability, T/C [30]: 1.22%
2 | CC(C)n1nc(-c2ccc3oc(N)nc3c2)c2c(N)ncnc21 + CNCc1ccccc1-c1csc(C(C)Nc2nc(C)nc3cc(OC)c(OC)cc23)c1 | 6.18 | 4.24 | 1.01 | < 0.316 | < 0.316 | 24.2 | 27.2 | – | – | 27.7 | 19.8 | – | – | 12.7 | 5.59 | – | 0.07 | 0.21 | 0.33 | 0.4 | viability, T/C [31]: 87.3%; viability, T/C [32]: 87.7%; viability, T/C [33]: 68.4%; viability, T/C [34]: 37.2%; viability, T/C [35]: 85.6%; viability, T/C [36]: 67.8%; viability, T/C [37]: 55.5%; viability, T/C [38]: 38.7%; viability, T/C [39]: 51.3%; viability, T/C [40]: 57.2%; viability, T/C [41]: 33.2%; viability, T/C [42]: 24.1%; viability, T/C [43]: 0.15%; viability, T/C [44]: 0.12%; viability, T/C [45]: 0.09%; viability, T/C [46]: 0.08%; viability, T/C [47]: 0.19%; viability, T/C [48]: 0.81%; viability, T/C [49]: 0.23%; viability, T/C [50]: 0.29%
3 | CC1(C)CCC(CN2CCN(c3ccc(C(=O)NS(=O)(=O)c4ccc(NCC5CCOCC5)c([N+](=O)[O-])c4)c(Oc4cnc5[nH]ccc5c4)c3)CC2)=C(c2ccc(Cl)cc2)C1 + CNCc1ccccc1-c1csc(C(C)Nc2nc(C)nc3cc(OC)c(OC)cc23)c1 | 1920 | 1750 | < 31.6 | < 31.6 | < 31.6 | 107 | 95.7 | 106 | 83.6 | 82.6 | 69.5 | 83.6 | 81.1 | 41.8 | 47.4 | 54 | 0.12 | 0.09 | 0.18 | 0.28 | viability, T/C [5]: 24%; viability, T/C [6]: 4.79%; viability, T/C [11]: 19.3%; viability, T/C [12]: 1.1%; viability, T/C [16]: 39.2%; viability, T/C [17]: 4.62%; viability, T/C [18]: 0.48%; viability, T/C [21]: 0.2%; viability, T/C [22]: 0.08%; viability, T/C [23]: 0.05%; viability, T/C [24]: 0.38%; viability, T/C [27]: 0.14%; viability, T/C [28]: 0.17%; viability, T/C [29]: 0.44%; viability, T/C [30]: 1.23%
4 | CCN1CCN(Cc2ccc(Nc3ncc(F)c(-c4cc(F)c5nc(C)n(C(C)C)c5c4)n3)nc2)CC1 + CNCc1ccccc1-c1csc(C(C)Nc2nc(C)nc3cc(OC)c(OC)cc23)c1 | 149 | 70.1 | 6.73 | < 3.16 | < 3.16 | 56.5 | 56.6 | 43.2 | 28.6 | 46.4 | 49 | 38.5 | 3.67 | 28.7 | 32.2 | 1.49 | 0.08 | 0.09 | 0.18 | 0.15 | viability, T/C [33]: 76.8%; viability, T/C [34]: 82.9%; viability, T/C [37]: 75.2%; viability, T/C [38]: 60.7%; viability, T/C [41]: 60.1%; viability, T/C [42]: 43.3%; viability, T/C [16]: 0.15%; viability, T/C [45]: 0.13%; viability, T/C [46]: 0.12%; viability, T/C [21]: 0.05%; viability, T/C [22]: 0.14%; viability, T/C [49]: 4.51%; viability, T/C [50]: 0.16%; viability, T/C [27]: 1.23%; viability, T/C [28]: 0.18%
5 | CCNC(=O)CC1N=C(c2ccc(Cl)cc2)c2cc(OC)ccc2-n2c(C)nnc21 (stereo not given) + CNCc1ccccc1-c1csc(C(C)Nc2nc(C)nc3cc(OC)c(OC)cc23)c1 | 775 | 240 | 170 | < 31.6 | < 31.6 | 96.5 | 109 | 63.5 | 54.9 | 75.7 | 75.2 | 42 | 45.7 | 64.4 | 53 | 43.6 | 0.1 | 0.1 | 0.15 | 0.46 | viability, T/C [5]: 46.4%; viability, T/C [6]: 37.3%; viability, T/C [11]: 30.8%; viability, T/C [12]: 30.9%; viability, T/C [16]: 36.7%; viability, T/C [17]: 31%; viability, T/C [18]: 18.1%; viability, T/C [21]: 0.08%; viability, T/C [22]: 0.08%; viability, T/C [23]: 0.07%; viability, T/C [24]: 0.16%; viability, T/C [27]: 0.12%; viability, T/C [28]: 0.12%; viability, T/C [29]: 0.12%; viability, T/C [30]: 0.2%
6 | Cn1ncnc1[C@H]1c2n[nH]c(=O)c3cc(F)cc(c23)N[C@@H]1c1ccc(F)cc1 + CNCc1ccccc1-c1csc(C(C)Nc2nc(C)nc3cc(OC)c(OC)cc23)c1 | > 100 | > 100 | < 0.316 | < 0.316 | < 0.316 | 80.9 | 72.6 | – | – | 52.5 | 56.6 | – | – | 52.6 | 32.3 | – | 0.1 | 0.19 | 0.16 | 0.98 | viability, T/C [31]: 95.4%; viability, T/C [32]: 85.4%; viability, T/C [33]: 92.4%; viability, T/C [34]: 84%; viability, T/C [35]: 62.4%; viability, T/C [36]: 66.7%; viability, T/C [37]: 66.5%; viability, T/C [38]: 59.9%; viability, T/C [39]: 42.1%; viability, T/C [40]: 61.8%; viability, T/C [41]: 43.2%; viability, T/C [42]: 32.8%; viability, T/C [43]: 0.09%; viability, T/C [44]: 0.09%; viability, T/C [45]: 0.09%; viability, T/C [46]: 0.07%; viability, T/C [47]: 0.14%; viability, T/C [48]: 0.13%; viability, T/C [49]: 0.13%; viability, T/C [50]: 0.14%
